Assay results: patent US20040167220A1, “Environmentally safe fungicide and bactericide formulations” (priority 2003, published 2004)

Assays:
Fusarium moniliforme = test: In vitro PDA plate test against fungal plant pathogens; type: cell-based; settings: sodium benzoate 5.0 mM, pH adjusted with citric acid; note: key: 0 - no activity, mycelial growth occurred; Fs - Fungistatic activity; Fd - Fungicidal effect - mycelial growth was completely inhibited
[1] = system: Colletotrichum graminicola; test: as above; type: cell-based; note: key: 0 - no activity, mycelial growth occurred; Fs - Fungistatic activity; Fd - Fungicidal effect - mycelial growth was completely inhibited
Rhytisma acerinum = test: as above; type: cell-based; note: key: 0 - no activity, mycelial growth occurred; Fs - Fungistatic activity; Fd - Fungicidal effect - mycelial growth was completely inhibited
Fusarium nygamai [2] = test: as above; type: cell-based; settings: sodium benzoate 5.0 mM, pH adjusted with citric acid
Sclerotinia sclerotiorum = test: as above; type: cell-based; settings: sodium benzoate 5.0 mM, pH adjusted with citric acid
Alternaria solani [3] = test: as above; type: cell-based
Botrytis cinerea [4] = test: as above; type: cell-based
Fusarium proliferatum = test: as above; type: cell-based
Sclerotinia homoeocarpa = test: as above; type: cell-based; settings: sodium benzoate 5.0 mM, pH adjusted with citric acid
Alternaria solani [5] = settings: preservative used without the acidic pH of the invention
Fusarium nygamai [6] = settings: preservative used without the acidic pH of the invention
Botrytis cinerea [7] = settings: preservative used without the acidic pH of the invention
[8] = sodium benzoate 5.0 mM, pH adjusted with citric acid, in PDA
[9] = potassium sorbate/citric acid formulations, with or without surfactants, in PDA
[10] = potassium sorbate and citric acid in PDA, examined after 2, 4, 6 days, viability on untreated PDA
Throughout, for Activity against Fusarium nygamai: key: 0 - no activity, mycelial growth occurred; Fs - Fungistatic activity; Fd - Fungicidal effect - mycelial growth was completely inhibited.

In the case of `O=C([O-])c1ccccc1.[Na+]` [Control C, sodium benzoate], the “Activity against Fusarium moniliforme” value (Fusarium moniliforme) is reported as 0, the “Activity against Colletotrichum graminicola” value [1, 8] is reported as 0 and the “Activity against Rhytisma acerinum” value (Rhytisma acerinum; [8]) is reported as 0. For the same molecule, the “Activity against Fusarium nygamai” value (Fusarium nygamai [2]) was 0, the “Activity against Sclerotinia sclerotiorum” value (Sclerotinia sclerotiorum) was 0 and the “Activity against Alternaria solani” value (Alternaria solani [3]; [8]) was 0. For the same molecule, the “Activity against Botrytis cinerea” value (Botrytis cinerea [4]; [8]) was 0, the “Activity against Fusarium proliferatum” value (Fusarium proliferatum; [8]) was 0 and the “Activity against Sclerotinia homoeocarpa” value (Sclerotinia homoeocarpa) was 0.
`C/C=C/C=C/C(=O)[O-].[K+]` [potassium sorbate] was tested, and the pathogens killed (plant pathogens; 1 mM (0.0015%), pH 4.1, surfactants added) was 7 out of 8, the “activity against the broad range of plant pathogens tested” value (plant pathogens; 5 mM (0.075% solution), pH 4.1) was “cidal activity” and the “activity against plant pathogens” value (plant pathogens; 10 mM (0.15% solution), pH above 7.0) was “inactive or at best exhibits only static activity”. For the same molecule, the “number of pathogens with cidal activity” value (plant pathogens; down to 1 mM sorbate or lower, pH 4.1) was “two”, the “concentration required to kill Alternaria solani” value (Alternaria solani [5]) was “greater than 2%” and the “concentration required to kill Fusarium nygamai” value (Fusarium nygamai [6]) was “greater than 2%”. For the same molecule, the “concentration required to kill Botrytis cinerea” value (Botrytis cinerea [7]) was “greater than 2%”.
`C/C=C/C=C/C(=O)[O-].[K+]` [Control B, potassium sorbate] was tested, and the “Activity against Colletotrichum gram.” value [1, 9] was 0, the “Activity against Rhytisma acerinum” value (Rhytisma acerinum; [9]) was 0 and the “Activity against Alternaria solani” value (Alternaria solani [3]; [9]) was 0. For the same molecule, the “Activity against Botrytis cinerea” value (Botrytis cinerea [4]; [9]) was 0 and the “Activity against Fusarium proliferatum” value (Fusarium proliferatum; [9]) was 0.
For `C/C=C/C=C/C(=O)[O-].[K+]` [Control A, potassium sorbate], the “Activity against Colletotrichum gram.” value [1, 10] was 0, the “Activity against Rhytisma acerinum” value (Rhytisma acerinum; [10]) was 0 and the “Activity against Alternaria solani” value (Alternaria solani [3]; [10]) was 0. The “Activity against Botrytis cinerea” value (Botrytis cinerea [4]; [10]) was 0 and the “Activity against Fusarium proliferatum” value (Fusarium proliferatum; [10]) was 0.
For `O=C([O-])c1ccccc1.[Na+]` [sodium benzoate], the “control of the plant pathogens” value (plant pathogens; 5 mM (0.072% solution), pH above 7.0) was “ineffective”, the “species tested being killed” value (plant pathogens; 5 mM, pH 4.1) was 10 out of 10 and the “species with cidal activity” value (plant pathogens; 5 mM, pH 4.6) was 6 out of 10.
